# Structures can show the parent of a compound that is named as a salt.
# Tests used:
# [1] = test system: MCF-7 breast carcinoma cells; test: PARP cleavage Western blot (apoptosis) in MCF-7 cells; type: cell-based; conditions: FIG. 5; for 85 kDa PARP cleavage product: agent alone
# Excerpt: Tamoxifen-induced apoptosis is blocked in tumor cells overexpressing GP88. FIG. 5 is a western blot measuring the level of the PARP cleavage product (85 kDa band) in MCF-7 breast carcinoma cells treated with tamoxifen, tamoxifen+GP88, tamoxifen+estradiol, GP88, and a control. […] Tamoxifen-induced apoptosis was blocked by treatment with estradiol, a compound known to block tamoxifen-induced apoptosis, as shown by the decrease in the 85 kDa band in the lane labeled “Tamoxifen+estradiol.” Tamoxifen-induced apoptosis was blocked by treatment with GP88 to the same extent as treatment by estradiol.
# (§1) The present invention also provides methods of inducing apoptosis comprising administering a GP88 antagonist to a tumor cell. Apoptosis can be induced in all tumor cell types including, but not limited to, neuroblastoma, glioblastoma, astrocytoma, sarcomas, and cancers of the prostate, blood, cerebrospinal fluid, liver, kidney, breast, head and neck, pharynx, thyroid, pancreas, stomach, colon, colorectal, uterus, cervix, bone, bone marrow, testes, brain, neural tissue, ovary, skin, and lung. Apoptosis can be detected in tumor cells by a variety of techniques including, but not limited to for example, detection of Bcl-2 levels or detection of the PARP cleavage product, DNA ladder, and production of apoptotic cells. PARP or poly(ADP-ribose) polymerase is a nuclear binding protein that detects DNA strand breaks and participates in DNA repair. Cleavage of PARP is a hallmark of caspases-dependent apoptosis. When apoptosis takes place, the 116 kDa intact PARP is cleaved in two fragments, 85 kDa and 25 kDa. Detection of intact and cleaved forms of PARP by Western Blot analysis with anti-PARP antibody has been established as an apoptosis assay. Duriez et al., Biochem Cell Biol. 75: 337-49, 1997. […]
# (§2) MCF-7 cells or O4 cells were seeded at a density of 7×10^5 cells in 60-mm dish in DMEM/F12 supplemented with 5% FBS. […] Intact and cleaved forms of PARP were detected using a mouse monoclonal anti-PARP antibody from Oncogene Research (San Diego, Calif.). α-Actin was used for normalizing the loading.
# [2] = test system: cyclin D1; test: cyclin D1 expression (FIG. 11 lanes); type: cell-based
# Excerpt: Tumors progress through various stages of growth and maturation leading to increased mobility of the tumor through the body. Therefore, tumor cells can be targeted at several stages during the progression of tumor growth and maturation. For example, GP88 antagonists inhibit tumor cell growth and proliferation. For example, GP88 induces expression of cyclin D1, a cell cycle regulatory protein involved in the growth and proliferation of tumor cells.
# [3] = test system: O4 cells (GP88 overexpressing cells); test: tumor growth of O4 cells in ovariectomized nude mice; type: in vivo
# Excerpt: Athymic ovariectomized female nude mice were implanted with an estradiol pellet one day before being injected (S.C) with either MCF-7 cells or O4 cells. After 10 days when the tumors were visible, the mice received either a placebo pellet or tamoxifen pellet. Tumor growth was monitored for 45 days. At the end of the experiments, mice were euthanized and the tumors were excised and evaluated. […] In contrast, tumor volume in mice with tumor induced by O4 cells and untreated with tamoxifen increased from 75 mm^3 to 150 mm^3 in 45 days. Tamoxifen treatment of tumors overexpressing GP88 increased tumor volume more than 4 times while tumor volume of untreated GP88 overexpressing tumors increased by 2 times.
# [4] = test system: tamoxifen resistant MCF-7 cells; test: PARP cleavage Western blot (apoptosis) in tamoxifen resistant MCF-7 cells; type: cell-based; conditions: agent alone, FIG. 8
# Excerpt: as §1, with “kDa.” for “kDa. Detection of intact and cleaved forms of PARP by Western Blot analysis with anti-PARP antibody has been established as an apoptosis assay. Duriez et al., Biochem Cell Biol. 75: 337-49, 1997.”
# as §2
# [5] = test system: Bcl-2; test: Bcl-2 mRNA transcript RT-PCR in MCF-7 cells; type: cell-based; conditions: all concentrations tested (0 to 2 μm tamoxifen), FIG. 6
# Excerpt: (§3) Apoptosis is controlled by the ratio of apoptotic to anti-apoptotic factors, particularly Bcl-2, bcl-xl and bax. […] Zhang et al., Clin. Cancer Res. 5: 2971-7, 1999; Cameron et al., Eur. J. Cancer 36: 845-51, 2000. Alteration of Bcl-2 expression levels changes the bax:Bcl-2 ratio and alters susceptibility to apoptosis. O4 cells are MCF-7 cells transformed with a GP88 expression construct to overexpress GP88. Serrero et al., Proc. Natl. Acad. Sci. U.S.A. 97: 3993-8, 2000.
# (§4) GP88 overexpression blocks down-regulation of Bcl-2 mRNA transcript in response to tamoxifen treatment. MCF-7 cells and MCF-7 cells overexpressing GP88 (O4 cells) were treated with 0 to 2 μm tamoxifen. FIG. 6. 5 μg of total RNA was reverse transcribed into single strand cDNA by Super Script II (BRL, Gaithersburg, Md.) using 20 ng random hexamer (Gibco) as primer. The reverse transcription reaction was carried out for 1 h at 42 C in […] Tris-HCl (pH8.3), 2.5 mM MgCl2, 50 mM KCl, DTT 0.01 M and dNTP (each 0.5 mM). A total of 30-35 PCR cycles depending on the gene amplified were performed, followed by electrophoresis on 1% agarose gel. The specific primer pairs used were as follows: for glyceraldehyde 3-phosphate dehydrogenase (GAPDH): forward primer 5′ […] 3′ (SEQ ID NO: 9), reverse primer, 5′ […] 3′ (SEQ ID NO: 10); for Bcl-2: forward primer 5′ […] 3′ (SEQ ID NO: 11), reverse primer 5′ […] […]
# [6] = test system: Bcl-2; test: Bcl-2 mRNA transcript RT-PCR in O4 cells; type: cell-based; conditions: even at elevated doses, FIG. 6
# Excerpt: as §3, §4
Compound,tamoxifen-induced apoptosis (85 kDa PARP cleavage product) ([1]; agent added together with tamoxifen),85 kDa PARP cleavage product [1],expression of cyclin D1 [2],"increase of tumor volume ([3]; O4 cell tumors (overexpressing GP88), tamoxifen treatment, 45 days)","tumor volume after 45 days ([3]; O4 cell tumors, ovariectomized nude mice with estradiol pellet, tamoxifen pellet, after 45 days, FIG. 9)","tumor volume at start ([3]; O4 cell tumors, ovariectomized nude mice with estradiol pellet, tamoxifen pellet, start value, FIG. 9)",cleavage of PARP [4],Bcl-2 transcript [5],Bcl-2 transcript [6]
"GP88: 88 kDa glycoprotein growth factor, epithelin/granulin precursor",blocked,not in the presence of GP88,stimulates,–,–,–,–,–,–
"CC/C(=C(\c1ccccc1)c1ccc(OCCN(C)C)cc1)c1ccccc1 [tamoxifen, tamoxifen citrate]",–,significantly increased,–,more than 4 times,about 225 mm^3,50 mm^3,does not cleave PARP,induced down-regulation,failed to down regulate
